Several values for one entry are separate records, joined by “and”; a condition that tells them apart may be missing. Equal values may be shown once. Inconclusive results and toxic doses are left out.
Test system: BDF1 mice, P388 leukemia ip, median survival T/C
Assay: NCI In Vivo Anticancer Drug Screen. Data for tumor model P388 Leukemia (intraperitoneal) in B6D2F1 (BDF1) mice
Conditions: endpoint: median survival time, higher = longer survival
Outline: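 Compound-treated tumour-bearing mice were compared with vehicle-treated controls. Survival was recorded, and the value is the treated-group measurement divided by the control-group measurement (T/C).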

[1] = dose: 100.0 mg/kg/injection, schedule: Q04DX003 (ip), vehicle: Klucel (hydroxypropylcellulose) (HPC)
[2] = dose: 200.0 mg/kg/injection, schedule: Q04DX003 (ip), vehicle: Klucel (hydroxypropylcellulose) (HPC)
[3] = dose: 400.0 mg/kg/injection, schedule: Q04DX003 (ip), vehicle: Klucel (hydroxypropylcellulose) (HPC)
[4] = dose: 50.0 mg/kg/injection, schedule: Q01DX009 (ip), vehicle: Klucel (hydroxypropylcellulose) (HPC)
[5] = dose: 100.0 mg/kg/injection, schedule: Q01DX009 (ip), vehicle: Klucel (hydroxypropylcellulose) (HPC)
[6] = dose: 200.0 mg/kg/injection, schedule: Q01DX009 (ip), vehicle: Klucel (hydroxypropylcellulose) (HPC)
[7] = dose: 50.0 mg/kg/injection, schedule: Q01DX009 (ip), vehicle: saline
[8] = dose: 100.0 mg/kg/injection, schedule: Q01DX009 (ip), vehicle: saline
[9] = dose: 200.0 mg/kg/injection, schedule: Q01DX009 (ip), vehicle: saline
[10] = dose: 50.0 mg/kg/injection, schedule: Q01DX001 (ip), vehicle: saline
[11] = dose: 50.0 mg/kg/injection, schedule: Q01DX009 (ip), vehicle: other
[12] = dose: 100.0 mg/kg/injection, schedule: Q01DX009 (ip), vehicle: other
[13] = dose: 200.0 mg/kg/injection, schedule: Q01DX009 (ip), vehicle: other
[14] = dose: 25.0 mg/kg/injection, schedule: Q01DX009 (ip), vehicle: saline with Tween-80
[15] = dose: 12.5 mg/kg/injection, schedule: Q04DX003 (ip), vehicle: saline with Tween-80
[16] = dose: 25.0 mg/kg/injection, schedule: Q04DX003 (ip), vehicle: saline with Tween-80
[17] = dose: 50.0 mg/kg/injection, schedule: Q04DX003 (ip), vehicle: saline with Tween-80
[18] = dose: 100.0 mg/kg/injection, schedule: Q04DX003 (ip), vehicle: saline with Tween-80
[19] = dose: 200.0 mg/kg/injection, schedule: Q04DX003 (ip), vehicle: saline with Tween-80
[20] = dose: 400.0 mg/kg/injection, schedule: Q04DX003 (ip), vehicle: saline with Tween-80
[21] = dose: 6.25 mg/kg/injection, schedule: Q01DX009 (ip), vehicle: saline with Tween-80
[22] = dose: 12.5 mg/kg/injection, schedule: Q01DX009 (ip), vehicle: saline with Tween-80
[23] = dose: 100.0 mg/kg/injection, schedule: Q01DX001 (ip), vehicle: saline
[24] = dose: 200.0 mg/kg/injection, schedule: Q01DX001 (ip), vehicle: saline
[25] = dose: 400.0 mg/kg/injection, schedule: Q01DX001 (ip), vehicle: saline

## COC1=C(OC)C(=O)C(C/C=C(\C)CC/C=C(\C)CC/C=C(\C)CC/C=C(\C)CC/C=C(\C)CC/C=C(\C)CC/C=C(\C)CC/C=C(\C)CCC=C(C)C)=C(C)C1=O
dose: 5.0 mg/kg/injection, schedule: Q01DX025 (ip), vehicle: saline with Tween-80
  T/C: 109 % of control
dose: 10.0 mg/kg/injection, schedule: Q01DX025 (ip), vehicle: saline with Tween-80
  T/C: 106 % of control
dose: 20.0 mg/kg/injection, schedule: Q01DX025 (ip), vehicle: saline with Tween-80
  T/C: 104 % of control
dose: 40.0 mg/kg/injection, schedule: Q01DX025 (ip), vehicle: saline with Tween-80
  T/C: 98 % of control

## CCCCN1C(=O)C/C(=C2\CC(=O)N(CCCC)C2=O)C1=O
[1]
  T/C: 116 % of control
[2]
  T/C: 95 % of control
[3]
  T/C: 95 % of control

## C(=C\CN(Cc1ccccc1)Cc1ccccc1)/CN(Cc1ccccc1)Cc1ccccc1
[4]
  T/C: 104 % of control
[5]
  T/C: 104 % of control
[6]
  T/C: 95 % of control

## O=C(O)C(NC1CCCCC1)c1ccccc1 (configuration not stated)
[7]
  T/C: 120 % of control
[8]
  T/C: 105 % of control
[9]
  T/C: 100 % of control

## OCC#CCO
dose: 12.0 mg/kg/injection, schedule: Q01DX001 (ip), vehicle: saline
  T/C: 95 % of control
dose: 25.0 mg/kg/injection, schedule: Q01DX001 (ip), vehicle: saline
  T/C: 113 % of control
[10]
  T/C: 109 % of control

## CCN(CC)c1ccc(C2NC(=O)c3ccccc3N2)cc1 (configuration not stated)
dose: 25.0 mg/kg/injection, schedule: Q01DX009 (ip), vehicle: Klucel (hydroxypropylcellulose) (HPC)
  T/C: 110 % of control
[4]
  T/C: 120 % of control
[5]
  T/C: 95 % of control

## CCCCNc1ccc([N+](=O)[O-])cc1[N+](=O)[O-]
[11]
  T/C: 95 % of control
[12]
  T/C: 101 % of control
[13]
  T/C: 105 % of control

## C1CC2CCC1CNC2
[14]
  T/C: 95 % of control
dose: 50.0 mg/kg/injection, schedule: Q01DX009 (ip), vehicle: saline with Tween-80
  T/C: 100 % of control
dose: 100.0 mg/kg/injection, schedule: Q01DX009 (ip), vehicle: saline with Tween-80
  T/C: 100 % of control

## CC1=C(C)Cc2c(c(OC(=O)c3ccccc3)cc(Cl)c2OC(=O)c2ccccc2)C1
[15]
  T/C: 94 % of control
[16]
  T/C: 94 % of control
[17]
  T/C: 92 % of control
[18]
  T/C: 90 % of control
[19]
  T/C: 93 % of control
[20]
  T/C: 94 % of control

## C1=C\CCC2SC2CC/1 (configuration not stated)
dose: 100.0 mg/kg/injection, schedule: Q04DX002 (ip), vehicle: saline
  T/C: 100 % of control
dose: 200.0 mg/kg/injection, schedule: Q04DX002 (ip), vehicle: saline
  T/C: 97 % of control
dose: 400.0 mg/kg/injection, schedule: Q04DX002 (ip), vehicle: saline
  T/C: 100 % of control

## Clc1c(CBr)ccc(CBr)c1Cl
[21]
  T/C: 104 % of control
dose: 6.25 mg/kg/injection, schedule: Q04DX003 (ip), vehicle: saline sonified
  T/C: 100 % of control
[22]
  T/C: 114 % of control
dose: 12.5 mg/kg/injection, schedule: Q04DX003 (ip), vehicle: saline sonified
  T/C: 90 % of control
[14]
  T/C: 123 % of control
dose: 25.0 mg/kg/injection, schedule: Q04DX003 (ip), vehicle: saline sonified
  T/C: 90 % of control

## CCOC(=O)C(/C=N/C(N)=O)=C(\C)O
[5]
  T/C: 87 % of control
[1]
  T/C: 100 % of control
[6]
  T/C: 95 % of control
[2]
  T/C: 95 % of control
dose: 400.0 mg/kg/injection, schedule: Q01DX009 (ip), vehicle: Klucel (hydroxypropylcellulose) (HPC)
  T/C: 87 % of control
[3]
  T/C: 95 % of control

## COc1ccc(C2c3cc4c(c(OC)c3CC3OCC(=O)C32)OCO4)cc1OC (configuration not stated)
dose: 44.8 mg/kg/injection, schedule: Q01DX010 (ip), vehicle: saline
  T/C: 163 % of control
[10]
  T/C: 100 % of control
dose: 89.5 mg/kg/injection, schedule: Q01DX010 (ip), vehicle: saline
  T/C: 172 % of control
[23]
  T/C: 109 % of control
dose: 100.0 mg/kg/injection, schedule: Q01DX010 (ip), vehicle: other
  T/C: 172 % of control
dose: 179.0 mg/kg/injection, schedule: Q01DX010 (ip), vehicle: saline
  T/C: 100 % of control
dose: 200.0 mg/kg/injection, schedule: Q01DX001 (ip), vehicle: other
  T/C: 157 % of control
[24]
  T/C: 104 % of control
dose: 400.0 mg/kg/injection, schedule: Q01DX001 (ip), vehicle: other
  T/C: 189 % of control
[25]
  T/C: 122 % of control

## COc1cccc(C(=O)O)c1OS(=O)(=O)c1ccc(C)cc1
dose: 25.0 mg/kg/injection, schedule: Q01DX009 (ip), vehicle: other
  T/C: 108 % of control
[11]
  T/C: 100 % of control
[12]
  T/C: 100 % of control
[13]
  T/C: 101 % of control
dose: 400.0 mg/kg/injection, schedule: Q01DX009 (ip), vehicle: other
  T/C: 103 % of control

## CCOC(=O)CCN(C)C
[8]
  T/C: 102 % of control
[9]
  T/C: 95 % of control
dose: 400.0 mg/kg/injection, schedule: Q01DX009 (ip), vehicle: saline
  T/C: 102 % of control

## COC(=O)/C(C#N)=C/c1c[nH]c2ccccc12
[18]
  T/C: 100 % of control
[19]
  T/C: 109 % of control
[20]
  T/C: 100 % of control

## CC1C[N+](C)(C)N=C1[O-] (configuration not stated)
[23]
  T/C: 109 % of control
[24]
  T/C: 90 % of control
[25]
  T/C: 109 % of control

## CCOC/C(C)=C/Cl
dose: 50.0 mg/kg/injection, schedule: Q01DX009 (ip), vehicle: acetone
  T/C: 104 % of control
dose: 100.0 mg/kg/injection, schedule: Q01DX009 (ip), vehicle: acetone
  T/C: 116 % of control
dose: 200.0 mg/kg/injection, schedule: Q01DX009 (ip), vehicle: acetone
  T/C: 112 % of control

## CCCCCCCCCC[N+]1([O-])CCCCC1
dose: 12.5 mg/kg/injection, schedule: Q01DX009 (ip), vehicle: saline
  T/C: 98 % of control
dose: 25.0 mg/kg/injection, schedule: Q01DX009 (ip), vehicle: saline
  T/C: 91 % of control
[7]
  T/C: 94 % of control

## O=c1oc2ccccc2c(O)c1C(C/C(=N/O)c1ccccc1)c1ccccc1 (configuration not stated)
[21]
  T/C: 99 % of control
dose: 6.25 mg/kg/injection, schedule: Q04DX003 (ip), vehicle: saline with Tween-80
  T/C: 100 % of control and 101 % of control
[22]
  T/C: 94 % of control
[15]
  T/C: 92 % of control and 107 % of control
[14]
  T/C: 93 % of control
[16]
  T/C: 105 % of control and 108 % of control
[17]
  T/C: 95 % of control and 110 % of control
[18]
  T/C: 102 % of control

## CCCCCCCCCCCC(=O)Nc1ccc(C(=O)OCC)cc1
dose: 100.0 mg/kg/injection, schedule: Q01DX001 (ip), vehicle: saline with Tween-80
  T/C: 91 % of control
dose: 200.0 mg/kg/injection, schedule: Q01DX001 (ip), vehicle: saline with Tween-80
  T/C: 87 % of control
dose: 400.0 mg/kg/injection, schedule: Q01DX001 (ip), vehicle: saline with Tween-80
  T/C: 91 % of control
